Where two headings read alike, the source gives them in different places.
Key:
[1] = system: human TERT expression (hTERT mRNA); assay: Quantitative real-time RT-PCR of hTERT mRNA expression (Ct, transcripts) in compound-treated cells; assay type: cell-based
Method in brief: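 Read-out is cycle threshold, the cycle at which probe fluorescence released by Taq 5′-nuclease activity crosses a set level; Ct falls as hTERT mRNA rises. cDNA of treated and untreated cells was compared, with starting transcripts quantified against a known-cDNA standard curve.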

viable cells in culture [2] = system: viable cells in culture
viable cells in culture [3] = assay: Cell viability assay (CellTiter-Glo Luminescent Cell Viability Assay, ATP quantitation, percent of vehicle control)

Structure (SMILES)	Average Number of hTERT Transcripts [1]	Average Cell Viability after 24 Hours (% DMSO) (viable cells in culture [2])	Average Cell Viability after 24 Hours (% DMSO) (viable cells in culture [3])
Fc1cc(Br)cc2c1NC(c1cccnc1)C1CC=CC21 (stereo not drawn) [compound 1457]	12.20	57.76	–
Fc1cc(F)c2c(c1)C1C=CCC1C(c1cccnc1)N2 (stereo not drawn) [compound 1463]	174.29	62.06	–
CN(C)CCCCNC(=O)c1cc(-c2cccs2)on1 [compound 1515]	113.63	–	96.89
Cn1c(-c2nnc(SCC(=O)NCc3nc4ccccc4n3C)o2)cc2ccccc21 [compound 1516]	127.39	–	87.09
CSCCNC(=O)c1cc(-c2cccs2)on1 [compound 1517]	140.89	–	112.40
O=C(NCCCN1CCCC1=O)c1cc(-c2cccs2)on1 [compound 1518]	302.69	–	104.12
Cc1cnc(CNC(=O)c2cc(-c3cccs3)on2)cn1 [compound 1519]	303.81	–	110.34
COc1cc(CCNC(=O)c2cc(-c3cccs3)on2)ccc1O [compound 1520]	322.93	–	98.51
O=C(NCCc1ccccn1)c1cc(-c2cccs2)on1 [compound 1521]	329.90	–	106.64
O=C(NCCCn1ccnc1)c1cc(-c2ccccc2)on1 [compound 1522]	345.10	–	80.72
O=C(NCCc1c[nH]cn1)c1cc(-c2cccs2)on1 [compound 1523]	513.46	87.71	–
O=C(NCCc1ccncc1)c1cc(-c2cccs2)on1 [compound 1524]	562.51	–	103.34
O=C(OCc1ccc(Cl)cc1Cl)c1ccc(-c2nnc(-c3ccccc3)o2)cc1 [compound 1525]	7.73	–	83.30
CCOc1cccc(/C=N/NC(=O)CNc2ccc(C)cc2)c1O [compound 1526]	8.14	–	79.56
O=C(N/N=C/c1c(O)ccc2ccccc12)c1ccc(CO)nc1 [compound 1527]	15.53	–	89.01
CCN(CC)c1ccc(/C=N/NC(=O)C2CC2c2ccccc2)c(O)c1 (stereo not drawn) [compound 1528]	24.18	–	69.89
COc1cccc(/C=N/NC(=O)C2CC2c2ccccc2)c1O (stereo not drawn) [compound 1529]	29.94	–	102.67
C/C(=N\NC(=O)c1ccccc1O)c1ccccc1O [compound 1530]	30.46	–	96.99
C/C(=N\NC(=O)c1c(O)ccc2ccccc12)c1ccccc1C(=O)O [compound 1531]	32.70	–	110.91
Cc1c(OS(=O)(=O)c2ccccc2)ccc2c3c(c(=O)oc12)CCCC3 [compound 1533]	35.76	–	99.57
CS(=O)(=O)N1CCN(c2ccc(NC(=O)c3cccc(OCc4ccccc4)c3)cc2)CC1 [compound 1534]	3.18	–	90.05

Structure (SMILES)	Average Number of hTERT Transcripts [1]	Average Cell Viability after 24 Hours (% DMSO) (viable cells in culture [2])	Average Cell Viability after 24 Hours (% DMSO) (viable cells in culture [3])
Cc1ccc(S(=O)(=O)Nc2ccc([N+](=O)[O-])cc2)cc1 [compound 1535]	3.69	–	88.02
COC(=O)COc1ccc(NC(=O)c2ccccc2I)cc1 [compound 1536]	7.34	–	65.12
COC(=O)COc1ccc(NC(=O)c2cccc(C)c2)cc1 [compound 1537]	9.58	–	67.92
CC(C)c1cccc(C(C)C)c1NC(=O)c1ccc(OCC(=O)OC2CCCCC2)cc1 [compound 1538]	10.53	–	74.17
Cc1ccc(C)c(NC(=O)c2ccccc2NS(=O)(=O)c2cc([N+](=O)[O-])ccc2C)c1 [compound 1539]	37.11	–	65.11
S=C(Nc1ccc(Oc2ccccc2)cc1)Nc1ccc(Cl)cc1Cl [compound 1540]	9.11	–	68.10
COc1ccc(NC(=S)NCc2ccco2)c(OC)c1 [compound 1541]	3.41	–	104.75
CCN(Cc1ccncc1)C(=O)c1cccs1 [compound 1542]	3.43	–	111.82
CCOC(=O)c1c(NC(=O)CCN2C(=O)c3ccccc3C2=O)sc2c1CCC(C)C2 (stereo not drawn) [compound 1543]	3.71	–	82.75
OCCN1CCN(c2ncnc3scc(-c4ccccc4)c23)CC1 [compound 1544]	3.85	–	104.59
CC1CCc2c(sc3ncnc(N4CCCC(C)C4)c23)C1 (stereo not drawn) [compound 1545]	4.40	–	43.72
Cc1ccccc1OCC(=O)OCc1ccc([N+](=O)[O-])cc1 [compound 1548]	5.77	–	99.62
COC(=O)c1ccc(COC(=O)CCS(=O)(=O)c2ccc(C)cc2)cc1 [compound 1549]	8.60	–	99.71
C=CCN(CC=C)CCCOc1ccccc1 [compound 1550]	12.90	–	96.87
COC(=O)COc1ccc(S(=O)(=O)NCc2ccc(C)cc2)cc1 [compound 1551]	16.60	–	40.32
c1ccc(-c2nc3ccccn3c2Nc2ccc3c(c2)OCCO3)nc1 [compound 1552]	21.09	–	64.55
O=C(COc1ccccc1)Nc1ccc(C(=O)NCC2COc3ccccc3O2)cc1 (stereo not drawn) [compound 1553]	23.58	–	77.33
Cc1ccc(NC(=O)CCC(=O)OCC(=O)c2ccc(Br)cc2)c(C)c1 [compound 1554]	46.62	–	71.31
CC(C)(C)c1cc(-c2nc3ccccc3[nH]2)c(O)c(-c2nc3ccccc3[nH]2)c1 [compound 1555]	52.10	–	90.08
CSc1nc(C2CC2)cc(-c2ccccc2)c1C#N [compound 1556]	85.40	–	90.02
NCCC(=O)N[C@@H](Cc1cnc[nH]1)C(=O)O [compound 1557]	54.80	–	97.77

Reference: patent US12404304B1, “Telomerase reverse transcriptase (TERT) expression enhancing compounds and methods for using the same” (Sierra Sciences, LLC, priority 2007, dated 2025)
